Source: PMC6331910, “The Curcumin Analogue 1,5-Bis(2-hydroxyphenyl)-1,4-pentadiene-3-one Induces Apoptosis and Downregulates E6 and E7 Oncogene Expression in HPV16 and HPV18-Infected Cervical Cancer Cells” (Molecules, 2015)

Experiments:
[1] = test system: HPV16E6; assay: Quantitative real-time PCR of viral oncogene mRNA in CaSki cells; assay type: cell-based, HPV16; conditions: 24 h
Description: (§1) RNA extraction was performed using the Qiagen RNeasy® Mini Kit (Qiagen, Valencia, CA, USA). According to the manufacturer’s instructions, treated HeLa and CaSki cells were lysed using Buffer RLT (supplemented with β-mercaptoethanol) and centrifuged for 3 min at maximum speed. 70% ethanol was added to the lysate and placed in an RNeasy Mini spin column and spun at ≥8000× g for 15 s. Flow-through was discarded and the pellet was subjected to a series of wash steps using buffers RW1 and RPE and subsequent RNA elution. On-column RNase-Free DNase (Qiagen) treatment was incorporated into the extraction protocol to eliminate […]. Concentration and purity of extracted RNA was measured spectrophotometrically using NanoDrop 1000 (Thermo Fisher Scientific, Wilmington, DE, USA). Two μg of total RNA per 20 μL reaction was used for complementary DNA (cDNA) synthesis using a High Capacity RNA-to-cDNA kit (Applied Biosystems, Life Technologies, Foster City, CA, USA). Appropriate volumes of RNA sample were added to 10 μL 2XRT Buffer and 1 μL 20X RT Enzyme Mix and the total volume was adjusted to 20 μL using nuclease-free water. Reverse transcription was performed on the samples using the following conditions; 37 °C for 60 min and 95 °C for 5 min. The sequences used to design the primers and TaqMan® probes were obtained from previous publications, synthesized by Applied Biosystems and optimized to amplify the HPV16 and HPV18 E6 and E7 regions (sequences listed in Table 2) using the StepOnePlus™ Real-Time PCR system (Applied Biosystems). The optimized concentrations of the primers and probes used were […] respectively. Human VIC®-MGB ACTB (β-actin) was used as an endogenous control for internal normalisation and relative gene expression quantification. Each reaction was run in duplicates and used to calculate relative gene expression using the 2^−∆∆CT method. Expression is reported as fold change in the level of mRNA of treated cells relative to untreated cells, normalised to β-actin expression.

[2] = test system: HPV16E7; assay: as above; assay type: cell-based, HPV16; conditions: 24 h
Description: as §1

[3] = test system: HeLa; assay: MTT anti-proliferative (time-dependent) assay, 24, 48 and 72 h; assay type: cell-based, human
Description: (§2) HeLa, CaSki and MRC9 cells were plated in triplicate wells in 96-well flat-bottomed tissue culture plates (Nunc, Roskilde, Denmark) with 10^5 cells per mL in 100 μL culture media with working concentrations of diarylpentanoid treatment ranging from 1.6 to 100 μM. Control-treated wells contained cells incubated in media with equal volumes of DMSO (0.2%). Cells were treated for 72 h for dose-dependent cytotoxicity assays and at 24, 48 and 72 h for anti-proliferative (time-dependent) assays. In order to assess cell viability and anti-proliferative activity after diarylpentanoid treatment, the colorimetric 3-(4,5-dimethylthiazol-2-yl)-2,5-diphenyltetrazolium bromide (MTT) assay was performed as previously described with modifications. The media was aspirated and cells were incubated in 100 µL complete medium with 0.5 mg/mL MTT solution for 4 h in the dark to allow metabolism of MTT by cellular mitochondrial dehydrogenases. The excess MTT was aspirated and the formazan crystals formed were dissolved by the addition of 100 µL of DMSO. The absorbance of dark blue formazan was read at 570/650 nm wavelengths using a microplate reader (Bio-Rad Benchmark Plus Microplate Spectrophotometer, Hercules, CA, USA). Triplicate absorbance values were averaged and the effect of the compounds on growth inhibition was assessed as percentage cell viability as follows: (1) Percentage cell viability =Absorbance of Test − Absorbance of Blank (media only)/Absorbance of Control − Absorbance of Blank (media only) × 100 where, absorbance = optical density of sample, O.D.; control = untreated sample; test = treated sample.
(§3) An independent set of vehicle-treated (DMSO only) controls were included in the anti-proliferative assays to assess the proliferation of untreated cancer cells over 24, 48 and 72 h. As such, the cell viability at 24 h was used as a baseline to measure proliferation rate at 48 and 72 h. (2) Percentage cell viability = […]/Absorbance of Control (24 h) × Absorbance of Blank (media only) × 100

[4] = test system: CaSki; assay: as above; assay type: cell-based, human; conditions: for cell viability: 3.1–100 μM
Description: as §2, §3

[5] = test system: LNCaP prostate cancer cells; parameters: method as in PMID 21796654; conditions: cited from earlier work
[6] = test system: HeLa; assay: Acridine orange/ethidium bromide double staining, quantification of viable, apoptotic and necrotic cells; assay type: cell-based, human
Description: (§4) HeLa, 9 μM] at various time points. Each experiment included a set of untreated control cells (Media with DMSO alone). Double staining with acridine orange and ethidium bromide and consequently fluorescent microscopic analysis is an established method by which to distinguish between viable, necrotic and apoptotic cells. […] Following treatment, the cells were pelleted, washed twice in 1× PBS and resuspended in 50 μL 1× PBS. 1 μL of dye mixture (1 part 100 μg/mL acridine orange in PBS and 1 part 100 μg/mL ethidium bromide in PBS) was added to 10 μL of cell suspension and the entire volume was placed on a clean microscope slide. Cells were examined by fluorescence microscopy using the fluorescein filter (BX41, Olympus, Melville, NY, USA) and were distinguished via the morphological aspect of chromatin condensation in stained nuclei as previously established. A minimum of 200 cells were counted per sample and the percentage of cells from each population (viable, live apoptotic, dead apoptotic, necrotic) was calculated.

[7] = test system: CaSki; assay: as above; assay type: cell-based, human
Description: as §4

O=C(C=Cc1ccccc1O)C=Cc1ccccc1O [MS17, 1,5-bis(2-hydroxyphenyl)-1,4-pentadiene-3-one]
inhibition of E6 oncogene expression ([1]; 2 μM and 4 μM): did not show significant inhibition | decrease in HPV16E6 expression ([1]; 6 μM, vs untreated): 3 fold | inhibition of E7 oncogene expression ([2]; 2 μM and 4 μM): did not show significant inhibition | decrease in HPV16E7 expression ([2]; 6 μM, vs untreated): 3 fold | dosage from which reduction in cell viability was significantly higher at 48 and 72 h than at 24 h [3]: 6.3 µM | cell viability ([3]; 6.3 μM onwards, 24 h): 34% | cell growth ([3]; 6.3 μM onwards, 48 h): 12% | cell growth ([3]; 6.3 μM onwards, 72 h): 5% | dosage from which reduction in cell viability was significantly higher at 48 and 72 h than at 24 h [4]: 3.1 µM | cell growth ([4]; 12.5 μM onwards, 24 h): 43% | cell viability ([4]; 48 h): 22% | cell viability ([4]; 72 h): 9% | concentration causing significant cell death [5]: > 10 µM | early apoptotic cells ([6]; 3 µM, 24 h): 40% | early apoptotic cells ([6]; 3 µM, 48 h): 50% | necrotic cells ([6]; 3 µM, throughout the treatment period (24 and 48 h)): approximately 10% | early apoptotic cells ([6]; 6 µM, 24 h): 60% | early apoptotic cells ([6]; 6 µM, 48 h): 30% | necrotic cells ([6]; 6 µM, throughout the treatment period (24 and 48 h)): approximately 25% | early apoptotic cells ([6]; 9 µM, 24 h): 50% | necrotic cells ([6]; 9 µM, 24 h): 40% | early apoptotic cells ([6]; 9 µM, 48 h): 10% | necrotic cells ([6]; 9 µM, 48 h): 50% | viable cells ([6]; 24 h, end of dose-dependent decrease (3–9 µM)): less than 10% | viable cells ([6]; 48 h, with increasing treatment dose (3–9 µM)): less than 5% | late apoptotic cells ([6]; all treatment doses, 24 h): ≤ 10% | early apoptotic cells ([7]; 2 µM, 24 h): 10% | early apoptotic cells ([7]; 2 µM, 48 h): 20% | early apoptotic cells ([7]; 4 µM, 24 h): 85% | early apoptotic cells ([7]; 4 μM, 48 h): 75% | early apoptotic cells ([7]; 6 µM, 24 h): 55% | necrotic cells ([7]; 6 µM, 24 h): 30% | early apoptotic cells ([7]; 6 µM, 48 h): 30% | necrotic cells ([7]; 6 µM, 48 h): 50% | necrotic cells ([7]; 2 and 4 µM, 24 and 48 h): ~ 10% | viable cells ([7]; 24 h, end of dose-dependent decrease (2–6 µM)): less than 5% | viable cells ([7]; 48 h, with increasing treatment dose (2–6 µM)): less than 5%
